Assay results: PubChem BioAssay (NCI)
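Exposure lasted 48 hours, with cells grown in 96-well plates and compounds tested at five concentrations. GI50 is the concentration that inhibits growth by half. TGI is the concentration that stops growth completely.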

How the values were obtained:
Test in all cases: NCI-60 cell line screen, 48 h
[1] = tested on: SW-620 colon
[2] = tested on: EKVX NSCLC
[3] = tested on: NCI-H460 lung
[4] = tested on: NCI-H23 lung
[5] = tested on: UACC-257 melanoma
[6] = tested on: SNB-19 CNS
[7] = tested on: 786-0 renal
[8] = tested on: SR leukemia
[9] = tested on: SF-268 CNS
[10] = tested on: SK-OV-3 ovarian
[11] = tested on: OVCAR-3 ovarian
[12] = tested on: DU-145 prostate
[13] = tested on: SF-539 CNS
[14] = tested on: T-47D breast
[15] = tested on: UACC-62 melanoma
[16] = tested on: MDA-MB-435
[17] = tested on: HT29 colon
[18] = tested on: MDA-MB-231 breast
[19] = tested on: SN12C renal
[20] = tested on: HL-60(TB) leukemia
[21] = tested on: UO-31 renal
[22] = tested on: U251 CNS
[23] = tested on: HOP-92 NSCLC
[24] = tested on: HCC-2998 colon
[25] = tested on: A549 NSCLC
[26] = tested on: NCI-H522 lung
[27] = tested on: PC-3 prostate
[28] = tested on: BT-549 breast
[29] = tested on: LOX IMVI melanoma
[30] = tested on: HOP-62 NSCLC
[31] = tested on: MCF7 breast
[32] = tested on: K-562 leukemia
[33] = tested on: M14 melanoma
[34] = tested on: MOLT-4 leukemia
[35] = tested on: IGROV1 ovarian
[36] = tested on: OVCAR-8 ovarian
[37] = tested on: COLO 205 colon
[38] = tested on: CCRF-CEM leukemia
[39] = tested on: OVCAR-4 ovarian
[40] = tested on: HCT-15 colon
[41] = tested on: NCI/ADR-RES ovarian
[42] = tested on: SK-MEL-5 melanoma
[43] = tested on: KM12 colon
[44] = tested on: SNB-75 CNS
[45] = tested on: TK-10 renal
[46] = tested on: SF-295 CNS
[47] = tested on: HCT-116 colon
[48] = tested on: SK-MEL-28 melanoma
[49] = tested on: OVCAR-5 ovarian
[50] = tested on: ACHN renal
[51] = tested on: SK-MEL-2 melanoma
[52] = tested on: MALME-3M melanoma
[53] = tested on: RXF 393 renal
[54] = tested on: A498 renal
[55] = tested on: RPMI-8226 leukemia
[56] = tested on: NCI-H226 lung

What does the source list for `c1cc2sc1CSCCSCCSC2`?
TGI [1]: > 100 µM; TGI [2]: > 100 µM; TGI [3]: > 100 µM; TGI [4]: > 100 µM; TGI [5]: > 100 µM; TGI [6]: > 100 µM; TGI [7]: > 100 µM; TGI [8]: > 100 µM; TGI [9]: > 100 µM; TGI [10]: > 100 µM; TGI [11]: > 100 µM; TGI [12]: > 100 µM; TGI [13]: > 100 µM; TGI [14]: > 100 µM; TGI [15]: > 100 µM; TGI [16]: > 100 µM; TGI [17]: > 100 µM; TGI [18]: > 100 µM; TGI [19]: > 100 µM; TGI [20]: > 100 µM; TGI [21]: > 100 µM; TGI [22]: > 100 µM; TGI [23]: > 100 µM; TGI [24]: > 100 µM; TGI [25]: > 100 µM; TGI [26]: > 100 µM; TGI [27]: > 100 µM; TGI [28]: > 100 µM; TGI [29]: > 100 µM; TGI [30]: > 100 µM; TGI [31]: > 100 µM; TGI [32]: > 100 µM; TGI [33]: > 100 µM; TGI [34]: > 100 µM; TGI [35]: > 100 µM; TGI [36]: > 100 µM; TGI [37]: > 100 µM; TGI [38]: > 100 µM; TGI [39]: > 100 µM; TGI [40]: > 100 µM; TGI [41]: > 100 µM; TGI [42]: > 100 µM; TGI [43]: > 100 µM; TGI [44]: > 100 µM; TGI [45]: > 100 µM; TGI [46]: > 100 µM; TGI [47]: > 100 µM; TGI [48]: > 100 µM; TGI [49]: > 100 µM

How did the GI50 [1] turn out when `O=[N+]([O-])c1ccc2scc3c4ccccc4nc-3c2c1` was run?
Its GI50 is 0.462 µM.

And the TGI [1]?
Its TGI is 1.7 µM.

And the GI50 [50]?
Its GI50 is 1.5 µM.

What about the TGI [50] of the same molecule?
Its TGI is 2.95 µM.

What about the GI50 [4] of the same molecule?
Its GI50 is 1.9 µM.

What about the TGI [4] of the same molecule?
The TGI was 5.05 µM.

What about the GI50 [5] of the same molecule?
Its GI50 is 1.32 µM.

What about the TGI [5] of the same molecule?
The TGI was 2.72 µM.

And the GI50 [6]?
Its GI50 is 1.96 µM.

What about the TGI [6] of the same molecule?
The TGI was 4.08 µM.

And the GI50 [51]?
The GI50 was 1.66 µM.

What about the TGI [51] of the same molecule?
Its TGI is 3.31 µM.

What about the GI50 [7] of the same molecule?
Its GI50 is 1.84 µM.

And the TGI [7]?
The TGI was 3.29 µM.

What about the GI50 [9] of the same molecule?
Its GI50 is 1.48 µM.

What about the TGI [9] of the same molecule?
Its TGI is 2.86 µM.

And the GI50 [10]?
The GI50 was 1.81 µM.

And the TGI [10]?
The TGI was 3.23 µM.

What about the GI50 [11] of the same molecule?
Its GI50 is 0.415 µM.

What about the TGI [11] of the same molecule?
The TGI was 1.63 µM.

And the GI50 [12]?
Its GI50 is 1.46 µM.

What about the TGI [12] of the same molecule?
The TGI was 2.77 µM.

What about the GI50 [13] of the same molecule?
Its GI50 is 1.8 µM.

What about the TGI [13] of the same molecule?
Its TGI is 3.35 µM.

And the GI50 [14]?
The GI50 was 0.784 µM.

And the TGI [14]?
Its TGI is 3.32 µM.

What about the GI50 [15] of the same molecule?
The GI50 was 1.72 µM.

And the TGI [15]?
The TGI was 3.34 µM.

And the GI50 [16]?
The GI50 was 1.54 µM.

And the TGI [16]?
The TGI was 3.94 µM.

And the GI50 [17]?
Its GI50 is 1.38 µM.

And the TGI [17]?
Its TGI is 3.03 µM.

And the GI50 [18]?
Its GI50 is 1.65 µM.

And the TGI [18]?
The TGI was 3.22 µM.

What about the GI50 [20] of the same molecule?
Its GI50 is 1.17 µM.

What about the TGI [20] of the same molecule?
The TGI was 5.26 µM.

And the GI50 [52]?
The GI50 was 1.15 µM.

What about the TGI [52] of the same molecule?
Its TGI is 2.64 µM.

And the GI50 [21]?
The GI50 was 1.16 µM.

What about the TGI [21] of the same molecule?
The TGI was 2.51 µM.

And the GI50 [22]?
The GI50 was 0.6 µM.

And the TGI [22]?
Its TGI is 2 µM.

And the GI50 [23]?
Its GI50 is 1.66 µM.

And the TGI [23]?
The TGI was 3.28 µM.

What about the GI50 [25] of the same molecule?
Its GI50 is 1.74 µM.

And the TGI [25]?
Its TGI is 3.85 µM.

What about the GI50 [26] of the same molecule?
Its GI50 is 0.342 µM.

And the TGI [26]?
The TGI was 1.54 µM.

And the GI50 [27]?
Its GI50 is 1.73 µM.

And the TGI [27]?
Its TGI is 3.5 µM.

And the GI50 [28]?
Its GI50 is 1.73 µM.

And the TGI [28]?
The TGI was 3.18 µM.

What about the GI50 [29] of the same molecule?
The GI50 was 1.36 µM.

And the TGI [29]?
Its TGI is greater than 100 µM.

And the GI50 [53]?
Its GI50 is 1.43 µM.

And the TGI [53]?
Its TGI is 2.78 µM.

And the GI50 [30]?
The GI50 was 1.78 µM.

And the TGI [30]?
The TGI was 3.24 µM.

What about the GI50 [31] of the same molecule?
The GI50 was 1.29 µM.

What about the TGI [31] of the same molecule?
The TGI was 3.61 µM.

What about the GI50 [32] of the same molecule?
The GI50 was 0.402 µM.

What about the TGI [32] of the same molecule?
Its TGI is greater than 100 µM.

What about the GI50 [33] of the same molecule?
Its GI50 is 1.85 µM.

And the TGI [33]?
The TGI was 3.58 µM.

What about the GI50 [37] of the same molecule?
The GI50 was 1.79 µM.

And the TGI [37]?
The TGI was 3.52 µM.

And the GI50 [38]?
Its GI50 is 0.611 µM.

What about the TGI [38] of the same molecule?
The TGI was 5.16 µM.

What about the GI50 [39] of the same molecule?
Its GI50 is 1.67 µM.

And the TGI [39]?
The TGI was 3.22 µM.

And the GI50 [54]?
The GI50 was 0.509 µM.

What about the TGI [54] of the same molecule?
The TGI was 2.07 µM.

And the GI50 [55]?
Its GI50 is 2.12 µM.

And the TGI [55]?
Its TGI is 6.18 µM.

And the GI50 [42]?
Its GI50 is 1.62 µM.

And the TGI [42]?
Its TGI is 3.03 µM.

What about the GI50 [43] of the same molecule?
Its GI50 is 1.59 µM.

What about the TGI [43] of the same molecule?
The TGI was 2.96 µM.

And the GI50 [44]?
The GI50 was 1.37 µM.

And the TGI [44]?
Its TGI is 2.66 µM.

What about the GI50 [45] of the same molecule?
The GI50 was 1.08 µM.

What about the TGI [45] of the same molecule?
Its TGI is 2.32 µM.

And the GI50 [46]?
The GI50 was 1.78 µM.

What about the TGI [46] of the same molecule?
The TGI was 3.87 µM.

What about the GI50 [47] of the same molecule?
Its GI50 is 1.33 µM.

What about the TGI [47] of the same molecule?
Its TGI is 2.94 µM.

And the GI50 [56]?
The GI50 was 2.22 µM.

And the TGI [56]?
Its TGI is 6.08 µM.

And the GI50 [48]?
Its GI50 is 1.72 µM.

What about the TGI [48] of the same molecule?
The TGI was 3.14 µM.

And the GI50 [49]?
Its GI50 is 1.91 µM.

What about the TGI [49] of the same molecule?
The TGI was 3.75 µM.
